# Experimental data reported in US20230028658A1, “EXPANDED DOSAGE REGIMENS FOR INTEGRIN INHIBITORS” (Pliant Therapeutics, Inc., priority 2021, published 2023).
# Like-named read-outs stand apart in the source and are kept apart here.
# Assays:
# COL1A1 expression = test: PCLS from IPF lung tissue, seven days, COL1A1 expression; assay type: cell-based, human; conditions: PCLS from a single IPF lung tissue sample, Compound 5 200 pM to 1 μM, significant reduction observed ≥2 nM, FIG. 6E
# Protocol: PCLS from 5-7 idopathic pulmonary fibrosis (IPF) lung tissue samples were cultured for seven days with one of: DMSO; Compound 5 at 200 nM; nintedanib at 75 nM; pirfenidone at 50 μm; a combination of Compound 5 at 200 nM and nintedanib at 75 nM; a combination of Compound 5 at 200 nM and pirfenidone at 50 μm; or an Alk5 inhibitor at 1 μm. […] FIG. 6D is a bar graph showing relative expression of COL1A1 in precision cut lung slices (PCLS) from idopathic pulmonary fibrosis (IPF) lung tissue upon exposure to Compound 5, clinical standard of care compounds nintedanib (Nin) and pirfenidone (Pirf), and an ALK5 inhibitor, all versus DMSO control.
# PCLS from a single IPF lung tissue sample were cultured for seven days with Compound 5 at concentrations of 200 pM, 2 nM, 60 nM, 200 nM, and 1 μM, along with 0.1% DMSO control and an Alk5 inhibitor at 1 μM. […] COL1A1 expression is also graphed for the PCLS in the presence of 0.1% DMSO control, and an Alk5 inhibitor at 1 μM.
# [1] = Single dose pharmacokinetics (SAD), Example B14; assay type: in vivo, human; conditions: for half-life / Cmax / AUC(0-t) / Tmax: human, oral; for half-life: plasma total drug; for half-life / Cmax / AUC(0-t): geometric mean; for Cmax / AUC(0-t) / Tmax: plasma; for AUC(0-t): read-out: AUC0-24, ng × h/mL; for Tmax: median
# Text: Accordingly, a study was designed to assess the PK of Compound 5 after a single dose and following a 6-day course of doses, at levels exceeding the dosages used in preceding Examples B12 and B13. This study was designed to assess at these higher doses aspects of the single-dose and steady-state pharmacokinetics of Compound 5.
# This study was a single-center, randomized, double-blind, ascending dose, placebo-controlled study in healthy participants. Each cohort included 10 participants (8 active, 2 placebo). Study participants received single ascending doses (SAD) of Compound 5 of 120, 160, 240, 320, 480, and 640 mg and multiple ascending doses (MAD) of Compound 5 of 80, 120, 160, 240, and 320 mg. Two cohorts of participants at 160 mg were studied in the MAD phase of the study.
# Participants received single Compound 5 doses of 120, 160, 240, 320, 480, and 640 mg. A total of 60 participants were enrolled across the dosing groups, with 48 participants who received Compound 5 available for PK analyses. Despite the substantially higher dosages, PK parameters in the dosing groups were consistent with those observed at lower doses in Example B12.
# [2] = system: normal bronchial epithelial cell; test: normal bronchial epithelial cell adhesion to LAP (FIG. 3A); assay type: cell-based
# [3] = system: human bronchial epithelial cells; test: LAP adhesion binding assay, normal human bronchial epithelial cells (xCELLigence cell index); assay type: cell-based; conditions: FIG. 3A; cell index (electrical impedance)
# Protocol: Two latency associated peptide (LAP) adhesion binding assays were devised using primary human lung cells, including normal (healthy) human bronchial epithelial cells and human lung fibroblasts (healthy and IPF).
# Human bronchial epithelial cells are known to express αvβ6 integrin in culture. Human bronchial epithelial cells were prepared for the assay by dissociation with trypsin/EDTA and were then seeded at 20,000 cells per well on 96 well plates (ACEA Bioscience E-plate View, Acea Biosciences; San Diego, Calif.) previously coated with 5 μg/ml of recombinant human LAP (R&D Systems; Minneapolis, Minn.) and blocked with 4% bovine serum albumin. Cell index (electrical impedance) was measured to assess cell attachment/spreading every 3 minutes for 24 hours at 37° C./5% CO2 using the xCELLigence RTCA MP Instrument (Acea Biosciences; San Diego, Calif.).
# lung Col1a1 expression [4] = test: Precision cut lung slices of mice under chronic bleomycin exposure, Col1a1 expression (Example B9); assay type: cell-based, Mice (C57BL/6); conditions: chronic bleomycin PCLS, 7 days culture, normalized to DMSO; FIG. 5B
# Protocol: Mice (C57BL/6) were administered 3 U/kg of bleomycin (Teva Pharmaceuticals; North Wales, Pa.) on Day 0 and 1 U/kg of bleomycin on days 14, 28, 42 and 56 via oropharyngeal aspiration while under anesthesia. At day 70, 14 days after the final bleomycin insult, precision cut lung slices were obtained. Following euthanization, 2% low gelling temp agarose was injected into the mouse lungs via the trachea. […] The lobes were then subjected to precision slicing to obtain samples for culture using a microtome (Compresstome VF-300-0Z, Precisionary; Greenville, N.C.). Individual slices were distributed in a multiwell culture plate and cultured for 7 days under control (DMSO) and test compound conditions. The viability of the slices over the course of culturing was confirmed by WST-1 assay of mitochondrial activity.
# During the culture period, slices in the control group were treated with DMSO and slices in the test group were treated with a DMSO solution of one of: the selective antibody αvβ6 inhibitor 3G9; the αvβ1-selective small molecule inhibitor; a combination of the selective antibody αvβ6 inhibitor 3G9 and the αvβ1-selective small molecule inhibitor; compound 5; and the small molecule ALK5 inhibitor. The selective αvβ1 and αvβ6 integrin inhibitors were analyzed at ≥their respective IC90 concentrations for inhibition of TGF-beta activation. […]
# lung Col1a1 expression [5] = test: Precision cut lung slices from human IPF explants, 3 days, Col1a1 expression; assay type: cell-based; conditions: human IPF PCLS, 3G9 ≥400 ng/mL, compound 5 179 nM, ALK5 inhibitor 1 μM, FIG. 6C
# Text: Explanted lung tissue was obtained from human IPF subjects and inflated with agarose as described in the preceding examples. Biopsy cores were obtained from the agarose-inflated lung tissue. The biopsy cores were subjected to precision slicing to obtain several hundred μm thick. Individual slices were distributed in a multiwell culture plate and cultured for […] under control (DMSO) and test compound conditions. The viability of the slices over the course of culturing was confirmed by WST-1 assay of mitochondrial activity.
compound,measurement,setting,value
"COCCN(CCCCc1ccc2c(n1)NCCC2)CC[C@H](Nc1ncnc2ccccc12)C(=O)O [Compound 5, (S)-4-((2-methoxyethyl) (4-(5,6,7,8-tetrahydro-1,8-naphthyridin-2-yl)butyl)amino)-2-(quinazolin-4-ylamino) butanoic acid]",reduction in COL1A1 expression at ≥2 nM,COL1A1 expression,≥ 47%
same,half-life,[1]; single dose 120 mg,37 h
same,half-life,[1]; single dose 160 mg,36.5 h
same,half-life,[1]; single dose 240 mg,46 h
same,half-life,[1]; single dose 320 mg,40.7 h
same,half-life,[1]; single dose 480 mg,43.7 h
same,half-life,[1]; single dose 640 mg,42.3 h
same,Cmax,[1]; single dose 120 mg,2710 ng/mL
same,AUC(0-t),[1]; single dose 120 mg,27400 ng·h/mL
same,Tmax,[1]; single dose 120 mg,4 h
same,Cmax,[1]; single dose 160 mg,2480 ng/mL
same,AUC(0-t),[1]; single dose 160 mg,28500 ng·h/mL
same,Tmax,[1]; single dose 160 mg,1.95 h
same,Cmax,[1]; single dose 240 mg,4390 ng/mL
same,AUC(0-t),[1]; single dose 240 mg,48000 ng·h/mL
same,Tmax,[1]; single dose 240 mg,3.5 h
same,Cmax,[1]; single dose 320 mg,6390 ng/mL
same,AUC(0-t),[1]; single dose 320 mg,71200 ng·h/mL
same,Tmax,[1]; single dose 320 mg,4 h
same,Cmax,[1]; single dose 480 mg,5080 ng/mL
same,AUC(0-t),[1]; single dose 480 mg,57300 ng·h/mL
same,Tmax,[1]; single dose 480 mg,3 h
same,Cmax,[1]; single dose 640 mg,6900 ng/mL
same,AUC(0-t),[1]; single dose 640 mg,88300 ng·h/mL
same,Tmax,[1]; single dose 640 mg,3.5 h
same,dose proportionality of total and peak exposures,[1]; single doses over the range of 120 to 640 mg,slightly less than dose-proportional manner
same,dose proportionality of total (AUC0-24) and peak (Cmax) exposure,[1]; single oral doses of 120 to 320 mg,increased in a dose-proportional manner
same,normal bronchial epithelial cell adhesion to LAP,[2],substantially inhibited
same,inhibition of normal bronchial epithelial cell adhesion to LAP,[3],substantially inhibited
same,lung Col1a1 expression,lung Col1a1 expression [4],decreased lung Col1a1 expression substantially
same,lung Col1a1 expression,lung Col1a1 expression [5],"substantial, statistically significant (p<0.01 vs vehicle) decrease"
